Literature values, collected in publication PMC12281572.
“And” between values parts separate entries of the source, which are not always exact repeats. Equal values may be shown once.

Experiment: FTIR, 4-fluorophenol as donor (the pK_BHX database, per the paper)
Settings: CCl4; 25 C

First: CN(C)C=NN(C)C
Second: CN=C(N(C)C)N(C)C
The “pK_BHX (log10 Kf of the 1:1 H-bond complex with 4-fluorophenol, by FTIR)” value of the first is lower: 2.43 log units for the first, 3.16 log units for the second.

First: CCN(CC)C(=O)c1ccc(OC)cc1
Second: CCN(CC)c1ccc(C(C)=O)cc1
The “pK_BHX (log10 Kf of the 1:1 H-bond complex with 4-fluorophenol, by FTIR)” value of the first is higher: 2.35 log units for the first, 1.82 log units for the second.

Compared with `Clc1ccc(N=C(Nc2ccccc2)c2ccccc2)cc1`, `CC(=Nc1ccccc1)Nc1ccccc1` is higher in “pK_BHX (log10 Kf of the 1:1 H-bond complex with 4-fluorophenol, by FTIR)” value: 1.13 log units for the first, 1.66 log units for the second.

First: Cc1ccccn1
Second: CNc1ccccn1
The “pK_BHX (log10 Kf of the 1:1 H-bond complex with 4-fluorophenol, by FTIR)” value of the first is lower: 2.03 log units for the first, 2.11 log units for the second.

First: O=C(c1ccccc1)c1ccccc1
Second: COc1ccc(N(C)C(=Nc2ccc(Br)cc2)c2ccccc2)cc1
The “pK_BHX (log10 Kf of the 1:1 H-bond complex with 4-fluorophenol, by FTIR)” value of the first is lower: 1.07 log units for the first, 1.23 log units for the second.

First: OCCc1ccccc1
Second: CSCc1ccccc1
The “pK_BHX (log10 Kf of the 1:1 H-bond complex with 4-fluorophenol, by FTIR)” value of the first is higher: 0.97 log units for the first, -0.02 log units for the second.

Going from `CN1CCCCC1` to `CC(=O)N1CCCC1`, the “pK_BHX (log10 Kf of the 1:1 H-bond complex with 4-fluorophenol, by FTIR)” value rises from 2.11 log units to 2.61 log units.

First: c1ccncc1
Second: CCc1cccnc1
The “pK_BHX (log10 Kf of the 1:1 H-bond complex with 4-fluorophenol, by FTIR)” value of the first is lower: 1.86 log units for the first, 2.01 log units for the second.

Going from `Cc1cccc(N(C)C)c1` to `COc1ccccc1C`, the “pK_BHX (log10 Kf of the 1:1 H-bond complex with 4-fluorophenol, by FTIR)” value falls from 0.41 log units to -0.37 log units.

Going from `FCCCF` to `CCCCN`, the “pK_BHX (log10 Kf of the 1:1 H-bond complex with 4-fluorophenol, by FTIR)” value rises from -0.27 log units to 2.19 log units.

Compared with `CS(C)=O`, `CN(C)C=O` is lower in “pK_BHX (log10 Kf of the 1:1 H-bond complex with 4-fluorophenol, by FTIR)” value: 2.54 log units for the first, 2.1 log units for the second.

First: C=Cn1ccnc1
Second: c1cnoc1
The “pK_BHX (log10 Kf of the 1:1 H-bond complex with 4-fluorophenol, by FTIR)” value of the first is higher: 2.35 log units for the first, 0.81 log units for the second.

First: CCNC
Second: CCN(CC)S(=O)(=O)N(CC)CC
The “pK_BHX (log10 Kf of the 1:1 H-bond complex with 4-fluorophenol, by FTIR)” value of the first is higher: 2.25 log units for the first, 1.17 log units for the second.

Going from `CN(C)C=NC1CC1` to `BrC1CC1`, the “pK_BHX (log10 Kf of the 1:1 H-bond complex with 4-fluorophenol, by FTIR)” value falls from 2.36 log units to -0.47 log units.

Going from `ClC12CC3CC(CC(C3)C1)C2` to `CCOC(=O)C12CC3CC(CC(C3)C1)C2`, the “pK_BHX (log10 Kf of the 1:1 H-bond complex with 4-fluorophenol, by FTIR)” value rises from -0.18 log units to 1.06 log units.

Compared with `CC(=O)c1ccc(C(C)C)cc1`, `CC(=O)c1cccc(Cl)c1` is lower in “pK_BHX (log10 Kf of the 1:1 H-bond complex with 4-fluorophenol, by FTIR)” value: 1.21 log units for the first, 0.82 log units for the second.

Compared with `CC(=Nc1ccc(C)cc1)Nc1ccc(C)cc1`, `Cc1cccc(C)c1C#N` is lower in “pK_BHX (log10 Kf of the 1:1 H-bond complex with 4-fluorophenol, by FTIR)” value: 2.01 log units for the first, 0.86 log units for the second.

Going from `Cc1cc(C)c(C)c(C)c1C` to `Cc1cc(=O)cc(C)o1`, the “pK_BHX (log10 Kf of the 1:1 H-bond complex with 4-fluorophenol, by FTIR)” value rises from -0.07 log units to 2.5 log units.

Compared with `NCc1cc(F)cc(F)c1`, `C1COCCOCCOCCOCCO1` is lower in “pK_BHX (log10 Kf of the 1:1 H-bond complex with 4-fluorophenol, by FTIR)” value: 1.28 log units for the first, 1.12 log units for the second.

In the case of `CCOC(=O)c1ccc(C#N)cc1`, the “pK_BHX (log10 Kf of the 1:1 H-bond complex with 4-fluorophenol, by FTIR)” value is given as 0.66 log units and 0.53 log units.
In the case of `Brc1ccccc1`, the “pK_BHX (log10 Kf of the 1:1 H-bond complex with 4-fluorophenol, by FTIR)” value is listed as -0.66 log units and -0.92 log units.
